# Experimental data taken from ChEMBL document CHEMBL1201862, “PubChem BioAssay data set” (2004).
# Activity calls are given as the source filed them.
# Columns and labels:
# [1] = biological target: Dual specificity tyrosine-phosphorylation-regulated kinase 1A (Rattus norvegicus, UniProt Q63470); assay type: biochemical, Homo sapiens
# T-cell = test: loss of vesicle association with mouse CD8+ T cells – mouse 2C CD8+ T cells, flow cytometry, dose response (AID 485284); assay type: functional
# INS1 = test: INS-1E survival protection against cytokine death – cell-based, luminescence, retest, dose response (AID 449756); assay type: functional; settings: Rattus norvegicus;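 note: cell death triggered by IL-1 beta plus TNF-alpha plus IFN-gamma mixture; protective hits raise ATP signal compared with cytokine alone wells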
# Streptococcus = test: GAS UMAA2166 growth inhibition – luminescence, BacTiterGlo, counter-screen for streptokinase expression inhibitor project, dose response (AID 1915); assay type: functional, organism-based;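 note: potency for reduction of bacterial viability or growth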
# [2] = fluconazole-exposed Candida albicans growth modulators – fluorescence, retest, confirmation (AID 2467); assay type: functional, cell-based
# [3] = biological target: Heat shock protein HSP 90-alpha (Homo sapiens, UniProt P07900); assay type: functional, organism-based
# [4] = tested on: Streptococcus sp. 'group A'; test: Streptococcus pyogenes SK(-)GAS viability under kanamycin – luminescence, BacTiterGlo, confirmation, counter-screen for streptokinase expression inhibitor project, dose response (AID 1900); assay type: functional, organism-based
# Streptokinase A = biological target: T1, Streptokinase A (Streptococcus pyogenes serotype M1, UniProt P10520); test: viability-normalized secreted streptokinase activity reduction – plasminogen activation absorbance, OD405, dose response (AID 1914); assay type: functional, Streptococcus pyogenes M1 GAS;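 note: secreted streptokinase activity via plasminogen activation per viability signal from cell pellet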
# T1 sequence (P10520 whole entry): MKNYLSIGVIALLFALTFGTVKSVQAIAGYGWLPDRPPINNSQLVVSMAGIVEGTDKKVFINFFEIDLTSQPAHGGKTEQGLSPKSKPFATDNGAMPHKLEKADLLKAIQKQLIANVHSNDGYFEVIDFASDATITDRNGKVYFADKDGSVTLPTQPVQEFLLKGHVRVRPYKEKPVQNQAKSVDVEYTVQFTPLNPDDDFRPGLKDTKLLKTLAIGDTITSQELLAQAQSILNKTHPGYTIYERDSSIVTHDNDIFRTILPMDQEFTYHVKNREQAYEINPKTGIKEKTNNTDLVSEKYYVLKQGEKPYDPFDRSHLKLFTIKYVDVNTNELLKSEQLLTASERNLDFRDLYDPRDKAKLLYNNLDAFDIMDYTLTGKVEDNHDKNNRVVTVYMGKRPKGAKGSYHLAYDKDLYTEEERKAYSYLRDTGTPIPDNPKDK
# [5] = NIH-3T3 fibroblast cytotoxicity, dose response, cytotoxicity control, cell-based, fluorescence, Alamar Blue, secondary assay (AID 2327); assay type: functional;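 note: NIH-3T3 mouse fibroblasts cultured with fluconazole at 8 µg/mL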
# [6] = biological target: T2, Neuropeptide Y receptor type 1 (Homo sapiens, UniProt P25929); test: Fluorescence-based counterscreen for agonists of NPY-Y2: cell-based high-throughput dose response assay for agonists of NPY-Y1.; assay type: functional
# T2 sequence (P25929 whole entry): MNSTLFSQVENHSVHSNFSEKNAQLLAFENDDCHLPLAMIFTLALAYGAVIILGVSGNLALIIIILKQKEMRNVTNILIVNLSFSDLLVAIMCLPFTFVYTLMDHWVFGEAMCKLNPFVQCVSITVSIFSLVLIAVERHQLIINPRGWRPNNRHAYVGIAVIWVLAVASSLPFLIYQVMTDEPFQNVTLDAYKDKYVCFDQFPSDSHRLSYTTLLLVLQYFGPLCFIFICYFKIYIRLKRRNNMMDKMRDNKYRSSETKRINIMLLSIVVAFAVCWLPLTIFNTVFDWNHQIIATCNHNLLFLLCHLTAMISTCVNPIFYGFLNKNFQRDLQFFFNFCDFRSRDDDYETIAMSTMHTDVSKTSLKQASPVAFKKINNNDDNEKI
# HEK293 [7] = test: Fluorescence-based counterscreen for potentiators or agonists of NPY-Y2: cell-based high-throughput dose response assay to identify inhibitors of cyclic nucleotide gated ion channel (CNGC) activity. In this assay, the parental HEK293 cell line transfected with a cyclic-nucleotide gated ion channel (CNGC)-based cAMP sensor is used to measure inhibition of isoproterenol-induced CNGC activity by test compound.; assay type: functional; settings: Homo sapiens
# fMet-Leu-Phe receptor = fMet-Leu-Phe receptor (Homo sapiens, UniProt P21462); test: formyl peptide receptor binders – dose response (AID 519); assay type: functional
# [8] = biological target: T3, Neuropeptide Y receptor type 2 (Homo sapiens, UniProt P49146); test: Fluorescence-based cell-based high-throughput dose response assay for agonists of NPY-Y2. [Related pubchem assays: 1703 (Screening assay (CNGC inhibitors).), 1359 (Screening assay (NPY-Y2 potentiators or agonists).), 1304 (Screening assay (NPY-Y1 potentiators or agonists).), 1710 (Screening assay (NPY-Y2 agonists).), 1791 (Summary AID.)]; assay type: functional
# T3 sequence (P49146 whole entry): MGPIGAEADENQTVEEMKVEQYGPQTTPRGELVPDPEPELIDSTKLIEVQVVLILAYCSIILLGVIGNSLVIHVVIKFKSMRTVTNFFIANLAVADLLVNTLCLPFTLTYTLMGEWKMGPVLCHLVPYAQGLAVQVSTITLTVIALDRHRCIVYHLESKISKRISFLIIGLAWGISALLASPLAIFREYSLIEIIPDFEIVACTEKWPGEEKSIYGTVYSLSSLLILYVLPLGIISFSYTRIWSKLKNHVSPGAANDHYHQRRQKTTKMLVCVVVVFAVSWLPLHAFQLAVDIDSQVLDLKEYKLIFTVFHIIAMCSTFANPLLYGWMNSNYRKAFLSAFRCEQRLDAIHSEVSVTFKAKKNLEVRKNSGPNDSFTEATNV
# [9] = HEK-293T cell viability reduction – luminescence, B-cell screen hits, cytotoxicity control for BCR NF-kB inhibitor project, dose response (AID 489021); assay type: functional, cell-based;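 note: HEK-293T cells carrying an NF-kB luciferase reporter; cells exposed to compound for about 14 hours before viability readout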
# [10] = general cell-killing toxicity readout – plate reader, dry powder samples, cytotoxicity control for PAX8 inhibitor project, dose response (AID 743021); assay type: functional, cell-based
# [11] = Luminescence Cell-Based Dose Response HTS to Identify Inhibitors of 5'UTR Stem-Loop Driven Prion Protein mRNA Translation in H4 Neuroglioblastoma Cells. [Related pubchem assays: 1827 (Project Summary), 1813 (Primary HTS)]; assay type: functional
# Paired box protein Pax-8 = Paired box protein Pax-8 (Homo sapiens, UniProt Q06710); test: PAX8 transcriptional activity inhibition in RMG-I – RMG-I cells, luciferase, cherry-pick, dose response (AID 687027); assay type: functional, cell-based;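 note: luciferase reporter driven by Pax8 target thyroperoxidase promoter measured by SteadyGlo luminescence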
# [12] = alpha-synuclein stem-loop luciferase translation blockers – H4 neuroglioma cells, luminescence, confirmation (AID 1988); assay type: functional, cell-based
# BJ [13] = test: growth inhibition of engineered Ras-driven BJ cells – cell-based, alamar blue fluorescence, cherrypicked samples, dose response (AID 2631); assay type: functional; settings: Homo sapiens;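 note: confirmatory dose-response assay in RAS-dependent BJ fibroblasts engineered with TERT, LT and ST, with cytotoxicity read by fluorescence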
# [14] = luciferase reporter signal suppression in cells – H4 neuroglioma cells, luminescence, dose response (AID 1990); assay type: functional, cell-based
# BJ [15] = test: BJ-TERT-LT-ST fibroblast viability loss – cell-based, RAS-independent, luminescence, dose response (AID 1935); assay type: functional; settings: Homo sapiens;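 note: BJ fibroblasts immortalized with TERT plus LT and ST oncogenes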
# cells [16] = assay type: functional, cell-based
# [17] = DRD fibroblast viability loss – cell-based, non-viral oncogenic, luminescence, dose response (AID 1934); assay type: functional; settings: Homo sapiens
# BJ [18] = test: BJ-TERT fibroblast viability loss – cell-based, RAS-independent, luminescence, dose response (AID 1933); assay type: functional; settings: Homo sapiens
# HEK293 [19] = test: EBV LMP1 TES2 canonical NF-kB signalling blockers – cell-based, HEK293, luciferase, cherry-pick, dose response (AID 588343); assay type: functional; settings: Homo sapiens
# [20] = alpha-synuclein stem-loop translation blockers – luminescence, H4 neuroglioblastoma cells, dose confirmation, confirmation (AID 2454); assay type: functional, cell-based;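 note: H4 neuroglioblastoma cells carrying an alpha-synuclein 5'UTR luciferase reporter; potency for inhibition of the luciferase signal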
# BJ [21] = test: cells; assay type: functional, cell-based; settings: Homo sapiens
# [22] = luciferase reporter signal reduction – luminescence, H4-C neuroglioblastoma cells, dose response (AID 2458); assay type: functional, cell-based;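 note: H4 neuroglioblastoma cells stably carrying a luciferase reporter gene fusion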
# X-box-binding protein 1 = X-box-binding protein 1 (Homo sapiens, UniProt P17861); assay type: functional, Cricetulus griseus;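 note: confirmatory dose-response counter-screen serving a CHOP assay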
# [23] = biological target: T4, Alkaline phosphatase, tissue-nonspecific isozyme (Homo sapiens, UniProt P05186); test: potency against alkaline phosphatase TNAP – biochemical, luminescent, dose response, SAR follow-up (AID 1056)
# T4 sequence (P05186 whole entry): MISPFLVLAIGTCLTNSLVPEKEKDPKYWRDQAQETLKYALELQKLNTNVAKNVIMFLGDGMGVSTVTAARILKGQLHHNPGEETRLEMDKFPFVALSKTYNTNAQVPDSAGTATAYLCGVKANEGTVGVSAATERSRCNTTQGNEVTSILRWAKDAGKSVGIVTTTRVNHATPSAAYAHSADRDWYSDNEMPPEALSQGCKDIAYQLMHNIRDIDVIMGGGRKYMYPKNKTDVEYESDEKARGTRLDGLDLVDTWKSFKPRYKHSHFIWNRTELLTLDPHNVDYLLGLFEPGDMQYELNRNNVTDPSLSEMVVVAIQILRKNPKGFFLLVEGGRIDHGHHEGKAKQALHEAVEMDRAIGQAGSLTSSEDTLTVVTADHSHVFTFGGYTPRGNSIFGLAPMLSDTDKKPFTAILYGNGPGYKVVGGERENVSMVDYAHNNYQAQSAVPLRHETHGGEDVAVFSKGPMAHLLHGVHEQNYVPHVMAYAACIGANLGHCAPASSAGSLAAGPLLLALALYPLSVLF
# [24] = biological target: Glyceraldehyde-3-phosphate dehydrogenase (Homo sapiens, UniProt P04406)
# [25] = biological target: Intestinal-type alkaline phosphatase (Homo sapiens, UniProt P09923); test: Dose Response confirmation of uHTS hits from a small molecule inhibitors of human intestinal alkaline phosphatase via a luminescent assay. [Related pubchem assays (depositor defined):AID2544, AID2574]; assay type: functional
# [26] = HEK-293T viability loss after treatment – luminescence, T-cell screen hits, cytotoxicity control for TCR NF-kB inhibitor project, dose response (AID 489026); assay type: functional, cell-based;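 note: cells exposed to compound about 14 hours before the viability readout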
# [27] = NIH3T3 cell viability loss – ATP luminescence, mouse fibroblasts, counter-screen, dose response (AID 2010); assay type: functional, cell-based;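 note: cells exposed to compound for about 90 hours before reading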
# [28] = Trypanosoma cruzi growth suppression in host cells – NIH3T3 host cells, beta-gal luminescence, confirmation (AID 2044); assay type: functional, cell-based;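 note: intracellular parasites grown in NIH/3T3 mouse fibroblasts as host cells; luminescent beta-galactosidase reporter signal from transgenic T. cruzi replicating inside host cells; inhibitors lower the luminescence signal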
# cells [29] = test: cells
# [30] = Counterscreen for AddAB inhibitors: absorbance-based bacterial cell-based high throughput dose response assay for inhibitors of bacterial viability. [Related pubchem assays (depositor defined):AID435030, AID449728, AID449731, AID488942, AID488955, AID488956]; assay type: functional
# Chain of X-box-binding protein 1 (P17861 whole entry): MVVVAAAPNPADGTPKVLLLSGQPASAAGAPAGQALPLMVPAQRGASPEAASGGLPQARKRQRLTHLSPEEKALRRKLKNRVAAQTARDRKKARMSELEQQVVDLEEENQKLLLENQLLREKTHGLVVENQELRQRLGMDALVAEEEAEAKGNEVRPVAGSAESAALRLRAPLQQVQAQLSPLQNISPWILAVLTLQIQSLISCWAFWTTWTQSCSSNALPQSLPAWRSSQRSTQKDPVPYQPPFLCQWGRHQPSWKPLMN
# Chain of Paired box protein Pax-8 (Q06710 whole entry): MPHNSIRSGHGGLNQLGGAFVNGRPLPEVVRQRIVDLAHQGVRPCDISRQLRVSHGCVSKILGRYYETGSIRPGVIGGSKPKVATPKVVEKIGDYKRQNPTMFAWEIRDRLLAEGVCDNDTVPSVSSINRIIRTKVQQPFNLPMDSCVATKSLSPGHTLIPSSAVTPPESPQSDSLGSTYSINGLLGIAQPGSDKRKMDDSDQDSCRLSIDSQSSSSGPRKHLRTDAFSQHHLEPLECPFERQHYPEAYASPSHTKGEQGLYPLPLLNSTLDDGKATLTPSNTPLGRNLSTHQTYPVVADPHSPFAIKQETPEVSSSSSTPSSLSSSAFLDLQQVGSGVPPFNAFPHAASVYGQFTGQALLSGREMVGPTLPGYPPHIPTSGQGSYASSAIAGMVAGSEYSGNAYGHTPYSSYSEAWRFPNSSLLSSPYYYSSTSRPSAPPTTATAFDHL
# Chain of Intestinal-type alkaline phosphatase (P09923 whole entry): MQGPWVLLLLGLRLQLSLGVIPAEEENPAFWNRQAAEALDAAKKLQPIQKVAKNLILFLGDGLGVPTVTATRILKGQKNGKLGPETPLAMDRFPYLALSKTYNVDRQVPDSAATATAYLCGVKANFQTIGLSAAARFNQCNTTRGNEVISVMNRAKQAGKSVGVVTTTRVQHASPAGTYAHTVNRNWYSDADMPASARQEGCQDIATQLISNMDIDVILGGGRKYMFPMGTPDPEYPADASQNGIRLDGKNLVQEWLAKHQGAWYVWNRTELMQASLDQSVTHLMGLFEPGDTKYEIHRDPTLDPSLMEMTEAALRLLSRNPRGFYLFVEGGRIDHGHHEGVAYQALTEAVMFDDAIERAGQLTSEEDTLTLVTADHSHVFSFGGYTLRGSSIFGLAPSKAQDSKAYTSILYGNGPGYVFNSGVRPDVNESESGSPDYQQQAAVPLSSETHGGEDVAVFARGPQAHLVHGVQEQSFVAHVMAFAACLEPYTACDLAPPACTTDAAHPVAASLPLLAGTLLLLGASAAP
# Chain of Glyceraldehyde-3-phosphate dehydrogenase (P04406 whole entry): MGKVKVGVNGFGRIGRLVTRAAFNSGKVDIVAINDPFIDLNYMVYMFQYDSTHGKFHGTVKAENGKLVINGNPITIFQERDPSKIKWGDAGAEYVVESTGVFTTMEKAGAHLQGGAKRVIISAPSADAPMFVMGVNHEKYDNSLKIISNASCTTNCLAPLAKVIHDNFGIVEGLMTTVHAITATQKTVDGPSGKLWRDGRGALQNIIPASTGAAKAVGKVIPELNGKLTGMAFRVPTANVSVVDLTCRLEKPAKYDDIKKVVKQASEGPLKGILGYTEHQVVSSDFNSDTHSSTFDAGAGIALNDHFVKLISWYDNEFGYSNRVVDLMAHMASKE
# Chain of fMet-Leu-Phe receptor (P21462 whole entry): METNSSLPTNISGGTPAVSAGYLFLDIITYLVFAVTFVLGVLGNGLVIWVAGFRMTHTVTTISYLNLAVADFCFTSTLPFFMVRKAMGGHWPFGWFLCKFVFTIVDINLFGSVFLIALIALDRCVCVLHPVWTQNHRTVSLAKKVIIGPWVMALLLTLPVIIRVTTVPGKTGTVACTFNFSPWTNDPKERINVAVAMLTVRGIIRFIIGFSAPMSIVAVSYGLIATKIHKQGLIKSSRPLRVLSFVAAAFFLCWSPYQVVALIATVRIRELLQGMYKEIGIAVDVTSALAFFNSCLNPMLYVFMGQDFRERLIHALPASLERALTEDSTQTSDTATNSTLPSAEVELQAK
structure (smiles),measurement,setting,value
C=CC(C)(C)c1c(O)c(CC=C(C)C)c(O)c2c(=O)c3ccc(O)c(O)c3oc12 [GERONTOXANTHONE I],AC50,[1],8.27 µM (active)
same,EC50,T-cell,2.86 µM (active)
same,AC50,INS1,3.34 µM (active)
same,EC50,Streptococcus,7.75 µM (active)
same,EC50,[2],> 38 µM (not active)
same,AC50,[3],8.03 µM (active)
same,EC50,[4],2.29 µM (active)
same,EC50,Streptokinase A,> 150 µM (not active)
same,EC50,[5],> 160 µM (inconclusive)
O=C(O)C1CC=CCC1C(=O)N1CCN(c2nc(-c3ccccc3)c3ccccc3n2)CC1 (configuration not stated),EC50,[6],22 µM (not active)
same,EC50,HEK293 [7],> 3.94 µM (active)
same,Ki,fMet-Leu-Phe receptor,> 66.7 µM (inactive)
same,EC50,[8],> 35.4 µM (not active)
COc1ccc(OCc2cccc(C(=O)Nc3cc(C)on3)c2)cc1,IC50,[9],> 80 µM (inactive)
same,AC50,[10],43.9 µM (active)
same,EC50,[11],> 60 µM (not active)
same,AC50,Paired box protein Pax-8,4.14 µM (active)
same,EC50,[12],9.85 µM (inconclusive)
CN(Cc1cnc2nc(N)nc(N)c2n1)c1ccc(C(=O)N[C@@H](CCC(=O)O)C(=O)O)cc1,EC50,BJ [13],> 133 µM (inactive)
same,EC50,[14],< 0.1 µM (active)
same,EC50,Streptococcus,0.65 µM (active)
same,EC50,BJ [15],> 150 µM (not active)
same,EC50,cells [16],0.078 µM (active)
same,EC50,[17],0.244 µM (active)
same,EC50,[4],0.621 µM (active)
same,EC50,BJ [18],> 150 µM (not active)
same,AC50,HEK293 [19],0.332 µM (active)
same,EC50,[20],0.011 µM (active)
same,EC50,[12],< 0.1 µM (active)
same,EC50,BJ [21],< 0.46 µM (active)
same,EC50,[22],0.074 µM (active)
O=[N+]([O-])c1cccc2c(N3CCOCC3)ccnc12,EC50,[6],> 35.4 µM (not active)
same,EC50,HEK293 [7],> 35.4 µM (not active)
same,EC50,[8],> 35.4 µM (not active)
CC1CCCC(NC(=O)COC(=O)/C=C/c2ccc3c(c2)OCO3)C1C (configuration not stated),Absolute IC50 (XBP1),X-box-binding protein 1,10 µM
COc1ccc(Cc2nnc(N3C(=O)[C@H]4CCCC[C@H]4C3=O)[nH]2)cc1,IC50,[23],> 100 µM (inactive)
same,IC50,[24],> 100 µM (not active)
COc1ccc(C2=Nc3cc(C)ccc3OC2)cc1,IC50,[25],> 100 µM (inactive)
same,EC50,T-cell,8.65 µM (active)
COc1cc(C2C3=C(Nc4ncnn42)c2ccccc2CC3)cc(OC)c1OC (configuration not stated),IC50,[26],> 80 µM (inactive)
same,EC50,[14],< 0.1 µM (active)
same,EC50,BJ [15],0.498 µM (inconclusive)
same,EC50,cells [16],0.452 µM (active)
same,EC50,[17],0.532 µM (active)
same,EC50,[11],< 0.1 µM (active)
same,EC50,BJ [18],0.572 µM (active)
same,AC50,Paired box protein Pax-8,2.18 µM (active)
same,EC50,[20],0.348 µM (active)
same,EC50,[12],< 0.1 µM (active)
same,EC50,BJ [21],0.659 µM (active)
same,EC50,[22],0.21 µM (active)
O=C(NCc1cccnc1)c1ccc([N+](=O)[O-])o1,EC50,[27],> 60 µM (inconclusive)
same,EC50,[28],< 0.1 µM (active)
same,EC50,cells [29],0.137 µM (active)
same,IC50,[30],> 39.5 µM (inactive)
CCCc1nc2oc(C(=O)c3ccccc3)c(N)c2c2c1COC(C)(C)C2,Absolute IC50 (XBP1),X-box-binding protein 1,10 µM
CC(=C/c1ccco1)/C=N/NC(=O)CSc1nnc(SCc2ccc(C)cc2)s1,IC50,[9],> 80 µM (inactive)
